Values after ≈ are worked out from the molar mass of the structure shown. Where two headings read alike, the source gives them in different places.
How the values were obtained:
N. gonorrhoeae FA19 = experiment: Liquid broth MIC, N. gonorrhoeae FA19; format: cell-based; conditions: Neisseria gonorrhoeae; N. gonorrhoeae FA19, liquid broth; read-out: Minimum Inhibitory Concentration, N. gonorrhoeae FA19
Method in brief: (§1)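 Colonies sub-cultured 24 h earlier on supplemented GC agar are suspended in broth, adjusted by optical density at 600 nm and added to 2-fold serial compound dilutions at 5×10^5 CFU/mL. Plates incubate 40-42 hours at 36° C with 5% CO2 before visual MIC reading.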

K. pneumoniae UMM = experiment: microbe, parasite or virus in culture; format: cell-based; conditions: Klebsiella pneumoniae, read-out: MIC K. pneumoniae UMM
Method in brief: (§2)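 Following CLSI guidance, growth inhibition is measured in Mueller-Hinton broth with divalent cations. Inoculum 5×10^5 CFU/mL; incubation 16-20 hours, 37° C; endpoint is visual absence of growth.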

E. coli AG100A = experiment: microbe, parasite or virus in culture; format: cell-based; conditions: Escherichia coli, read-out: MIC E. coli AG100A
Method in brief: as §2

K. pneumoniae SI-117 = experiment: microbe, parasite or virus in culture; format: cell-based; conditions: Klebsiella pneumoniae, SI117, read-out: MIC K. pneumoniae SI-117
Method in brief: as §2

E. coli D22 = experiment: microbe, parasite or virus in culture; format: cell-based; conditions: Escherichia coli
Method in brief: as §2

E. coli 901C = experiment: microbe, parasite or virus in culture; format: cell-based; conditions: Escherichia coli, read-out: MIC E. coli 901C
Method in brief: as §2

E. coli ATCC 25922 = experiment: Broth microdilution MIC, E. coli ATCC 25922; format: cell-based; conditions: Escherichia coli
Method in brief: as §2

N. gonorrhoeae FA1090 = experiment: Liquid broth MIC, N. gonorrhoeae FA1090; format: cell-based; conditions: Neisseria gonorrhoeae; N. gonorrhoeae FA1090, liquid broth; read-out: Minimum Inhibitory Concentration, N. gonorrhoeae FA1090
Method in brief: as §1

K. pneumoniae 848844 = experiment: microbe, parasite or virus in culture; format: cell-based, Klebsiella pneumoniae
Method in brief: as §2

N. gonorrhoeae WHO F = experiment: Liquid broth MIC, N. gonorrhoeae WHO F; format: cell-based; conditions: Neisseria gonorrhoeae; N. gonorrhoeae WHO F, liquid broth; read-out: Minimum Inhibitory Concentration, N. gonorrhoeae WHO F
Method in brief: as §1

E. coli AG100 = experiment: Broth microdilution MIC, E. coli AG100 (wild-type parent); format: cell-based; conditions: Escherichia coli; wild-type parent E. coli AG100, broth microdilution; read-out: MIC E. coli AG100
Method in brief: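 Broth microdilution in cation-supplemented Mueller-Hinton broth, 2-fold serial compound dilutions, inoculum 5×10^5 CFU/mL from 3-5 h log culture.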

[1] = tested on: N. gonorrhoeae ATCC 49226; experiment: Liquid broth MIC, N. gonorrhoeae ATCC 49226; format: cell-based; conditions: Neisseria gonorrhoeae, ATCC49226; N. gonorrhoeae ATCC 49226, liquid broth; read-out: Minimum Inhibitory Concentration, N. gonorrhoeae ATCC 49226
Method in brief: as §1

[2] = K. pneumoniae UMM producing SHV-5 and KPC-2
[3] = hyper-permeable E. coli D22, broth microdilution, read-out: MIC E. coli D22
[4] = hyper-permeable E. coli 901C, broth microdilution
[5] = ATCC25922, E. coli ATCC 25922, broth microdilution, read-out: MIC E. coli 25922
[6] = Klebsiella pneumoniae, K. pneumoniae 848844 producing SHV-11 and KPC-2, read-out: MIC K. pneumoniae 848844

SMILES | MIC (N. gonorrhoeae FA19) [µg/mL] | MIC (K. pneumoniae UMM; [2]) [µg/mL] | MIC (E. coli AG100A) [µg/mL] | MIC (K. pneumoniae SI-117) [µg/mL] | MIC (E. coli D22; [3]) [µg/mL] | MIC (E. coli 901C; [4]) [µg/mL] | MIC (E. coli ATCC 25922; [5]) [µg/mL] | MIC (N. gonorrhoeae FA1090) [µg/mL] | MIC (K. pneumoniae 848844; [6]) [µg/mL] | MIC (N. gonorrhoeae WHO F) [µg/mL] | MIC (E. coli AG100) [µg/mL] | MIC [1] [µg/mL] | MIC (K. pneumoniae UMM) [µg/mL] | MIC (E. coli D22; D22, read-out: MIC E. coli D22) [µg/mL] | MIC (E. coli 901C; 901C) [µg/mL] | MIC (K. pneumoniae 848844; Klebsiella pneumoniae, 848844, read-out: MIC K. pneumoniae 848844) [µg/mL] | MIC (E. coli ATCC 25922; ATCC25922, read-out: MIC E. coli 25922) [µg/mL]
CCNC(=O)NCCN1CCN(C(=O)NC(C(=O)N[C@H]2Cc3cccc(C(=O)O)c3OB2O)c2ccc(O)c(O)c2Cl)C(=O)C1=O (stereo partly drawn) [Example 235, (3R)-3-(2-(2-chloro-3,4-dihydroxyphenyl)-2-(4-(2-(3-ethylureido)ethyl)-2,3-dioxopiperazine-1-carboxamido)acetamido)-2-hydroxy-3,4-dihydro-2H-benzo[e][1,2]oxaborinine-8-carboxylic acid] | > 64 | 2 to 4 | 2 to 4 | 8 to 16 | 2 to 4 | 2 to 4 | 32 to 64 | 1 to 2 (≈ 1.51 to 3.03 µM) | 2 to 4 | 1 to 2 (≈ 1.51 to 3.03 µM) | 8 to 16 | > 64 |  |  |  |  | 
CCN1C[C@H](CCN)N(C(=O)NC(C(=O)N[C@H]2Cc3ccc(F)c(C(=O)O)c3OB2O)c2ccc(O)c(O)c2Cl)C(=O)C1=O (stereo partly drawn) [Example 238, (3R)-3-(2-((S)-6-(2-aminoethyl)-4-ethyl-2,3-dioxopiperazine-1-carboxamido)-2-(2-chloro-3,4-dihydroxyphenyl)acetamido)-7-fluoro-2-hydroxy-3,4-dihydro-2H-benzo[e][1,2]oxaborinine-8-carboxylic acid] | > 64 |  | 2 to 4 | 8 to 16 |  |  | 32 to 64 | 4 to 8 (≈ 6.29 to 12.6 µM) |  | 4 to 8 (≈ 6.29 to 12.6 µM) | 2 to 4 | > 64 | 8 to 16 | 8 to 16 | 2 to 4 | 8 to 16 | 
CCN1C[C@H](C)N(C(=O)NC(C(=O)N[C@H]2Cc3ccc(F)c(C(=O)O)c3OB2O)c2ccc(O)c(O)c2Cl)C(=O)C1=O (stereo partly drawn) [Example 206, (3R)-3-(2-(2-chloro-3,4-dihydroxyphenyl)-2-((S)-4-ethyl-6-methyl-2,3-dioxopiperazine-1-carboxamido)acetamido)-7-fluoro-2-hydroxy-3,4-dihydro-2H-benzo[e][1,2]oxaborinine-8-carboxylic acid] | 4 to 8 (≈ 6.59 to 13.2 µM) | 2 to 4 | < 0.25 | 2 to 4 | 0.5 to 1 | < 0.25 | 2 to 4 | 0.25 to 0.5 (≈ 0.412 to 0.824 µM) | 2 to 4 | 0.25 to 0.5 (≈ 0.412 to 0.824 µM) | 0.5 to 1 | 4 to 8 (≈ 6.59 to 13.2 µM) |  |  |  |  | 
CCN1CCN(C(=O)N[C@@H](C(=O)N[C@H]2Cc3ccc(F)c(C(=O)O)c3OB2O)c2ccc(O)c(O)c2Cl)C(=O)C1=O [Example 189, (R)-3-((R)-2-(2-chloro-3,4-dihydroxyphenyl)-2-(4-ethyl-2,3-dioxopiperazine-1-carboxamido)acetamido)-7-fluoro-2-hydroxy-3,4-dihydro-2H-benzo[e][1,2]oxaborinine-8-carboxylic acid] | 1 to 2 (≈ 1.69 to 3.37 µM) | 0.5 to 1 | 0.5 to 1 | 0.5 to 1 | 0.5 to 1 | 0.5 to 1 | 2 to 4 | 0.25 to 0.5 (≈ 0.422 to 0.844 µM) | 2 to 4 | 0.25 to 0.5 (≈ 0.422 to 0.844 µM) | 2 to 4 | 1 to 2 (≈ 1.69 to 3.37 µM) |  |  |  |  | 
CCN1C[C@H](CO)N(C(=O)NC(C(=O)N[C@H]2Cc3ccc(F)c(C(=O)O)c3OB2O)c2ccc(O)c(O)c2Cl)C(=O)C1=O (stereo partly drawn) [Example 237, (3R)-3-(2-(2-chloro-3,4-dihydroxyphenyl)-2-((R)-4-ethyl-6-(hydroxymethyl)-2,3-dioxopiperazine-1-carboxamido)acetamido)-7-fluoro-2-hydroxy-3,4-dihydro-2H-benzo[e][1,2]oxaborinine-8-carboxylic acid] | 4 to 8 (≈ 6.42 to 12.8 µM) | 2 to 4 | < 0.25 | 2 to 4 | < 0.25 | < 0.25 | 2 to 4 | 1 to 2 (≈ 1.61 to 3.21 µM) | 2 to 4 | 0.25 to 0.5 (≈ 0.401 to 0.803 µM) | 0.5 to 1 | 4 to 8 (≈ 6.42 to 12.8 µM) |  |  |  |  | 
CCN1CCN(C(=O)NC(C(=O)N[C@H]2Cc3ccc(F)c(C(=O)O)c3OB2O)c2ccc(O)c(O)c2Cl)C(O)C1=O (stereo partly drawn) [Example 194, (3R)-3-(2-(2-chloro-3,4-dihydroxyphenyl)-2-(4-ethyl-2-hydroxy-3-oxopiperazine-1-carboxamido)acetamido)-7-fluoro-2-hydroxy-3,4-dihydro-2H-benzo[e][1,2]oxaborinine-8-carboxylic acid] | 4 to 8 (≈ 6.73 to 13.5 µM) | 8 to 16 | 8 to 16 | 8 to 16 | 8 to 16 | 8 to 16 |  | 4 to 8 (≈ 6.73 to 13.5 µM) | 8 to 16 | 4 to 8 (≈ 6.73 to 13.5 µM) | 8 to 16 | 16 to 32 (≈ 26.9 to 53.8 µM) |  |  |  |  | 32 to 64
NS(=O)(=O)c1ccc(C(NC(=O)N2CCN(CCF)C(=O)C2=O)C(=O)N[C@H]2Cc3ccc(F)c(C(=O)O)c3OB2O)cc1 (stereo partly drawn) [Example 182, (3R)-7-fluoro-3-(2-(4-(2-fluoroethyl)-2,3-dioxopiperazine-1-carboxamido)-2-(4-sulfamoylphenyl)acetamido)-2-hydroxy-3,4-dihydro-2H-benzo[e][1,2]oxaborinine-8-carboxylic acid] | 4 to 8 (≈ 6.42 to 12.8 µM) | 32 to 64 | 32 to 64 | > 128 | 2 to 4 | 0.5 to 1 | > 128 | 1 to 2 (≈ 1.6 to 3.21 µM) | > 128 | 1 to 2 (≈ 1.6 to 3.21 µM) | > 128 | 4 to 8 (≈ 6.42 to 12.8 µM) |  |  |  |  | 
CCN1CCN(C(=O)NC(C(=O)N[C@H]2Cc3ccc(F)c(C(=O)O)c3OB2O)c2ccc(S(N)(=O)=O)cc2)C(=O)C1=O (stereo partly drawn) [Example 181, (3R)-3-(2-(4-ethyl-2,3-dioxopiperazine-1-carboxamido)-2-(4-sulfamoylphenyl)acetamido)-7-fluoro-2-hydroxy-3,4-dihydro-2H-benzo[e][1,2]oxaborinine-8-carboxylic acid] | 4 to 8 (≈ 6.61 to 13.2 µM) | 32 to 64 | 32 to 64 | > 128 | 8 to 16 | 0.5 to 1 | > 128 | 1 to 2 (≈ 1.65 to 3.3 µM) | 32 to 64 | 0.25 to 0.5 (≈ 0.413 to 0.826 µM) | > 128 | 4 to 8 (≈ 6.61 to 13.2 µM) |  |  |  |  | 
CCN1C[C@@H](C)N(C(=O)NC(C(=O)N[C@H]2Cc3cccc(C(=O)O)c3OB2O)c2ncc(O)cc2F)C(=O)C1=O (stereo partly drawn) [Example 191, (3R)-3-(2-((R)-4-ethyl-6-methyl-2,3-dioxopiperazine-1-carboxamido)-2-(3-fluoro-5-hydroxypyridin-2-yl)acetamido)-2-hydroxy-3,4-dihydro-2H-benzo[e][1,2]oxaborinine-8-carboxylic acid] | 16 to 32 (≈ 28.7 to 57.4 µM) | > 128 | 8 to 16 | > 128 | 8 to 16 | 0.5 to 1 | > 128 | 0.25 to 0.5 (≈ 0.449 to 0.897 µM) | > 128 | 1 to 2 (≈ 1.79 to 3.59 µM) | > 128 | > 64 |  |  |  |  | 
CCN1CCN(C(=O)NC(C(=O)N[C@H]2Cc3cccc(C(=O)O)c3OB2O)c2ccc(O)c(O)c2F)C(=O)C1=O (stereo partly drawn) [Example 70] | 1 to 2 (≈ 1.79 to 3.58 µM) | 0.5 to 1 | 0.5 to 1 | 8 to 16 | 2 to 4 | 0.5 to 1 | 2 to 4 | < 0.125 | 8 to 16 | < 0.125 | 2 to 4 | 0.25 to 0.5 (≈ 0.448 to 0.896 µM) |  |  |  |  | 
CCN1CCN(C(=O)NC(C(=O)N[C@H]2Cc3ccc(F)c(C(=O)O)c3OB2O)c2ncc(O)cc2F)C(=O)C1=O (stereo partly drawn) [Example 145, (3R)-3-(2-(4-ethyl-2,3-dioxopiperazine-1-carboxamido)-2-(3-fluoro-5-hydroxypyridin-2-yl)acetamido)-7-fluoro-2-hydroxy-3,4-dihydro-2H-benzo[e][1,2]oxaborinine-8-carboxylic acid] | 1 to 2 (≈ 1.78 to 3.56 µM) | 8 to 16 | 2 to 4 | 32 to 64 | 2 to 4 | 0.5 to 1 | 8 to 16 | < 0.125 | 32 to 64 | < 0.125 | 8 to 16 | 0.25 to 0.5 (≈ 0.445 to 0.891 µM) |  |  |  |  | 
